Values quoted from earlier work, collected in patent publication US20080260864A1, “Topical Compositions for the Treatment of Depilation-Induced Irritation or Prevention Thereof” (MEDIDERMIS LTD., priority 2005, published 2008).

Test system: skin / tissue
[1] = Hawley's Condensed Chemical Dictionary

Structure (SMILES) | irritancy to tissue [1] | toxicity by ingestion [1] | skin irritation (The Merck Index) | effect of repeated applications (UpToDate drug information)
[Al+3].[Cl-].[Cl-].[Cl-] [Anhydrous aluminium chloride, Aluminium chloride anhydrous] | powerful irritant | moderately toxic | – | –
S1SSSSSSS1 [Sulfur] | – | – | may cause skin irritation | may cause contact dermatitis
